Results taken from PubChem BioAssay (NCI).
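Here, GI50 denotes the concentration required for 50% inhibition of growth. TGI: total growth inhibition.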

How the values were obtained:
Assay in all cases: NCI anticancer screen, dose series, 384-well format
OVCAR-8 ovarian = test system: OVCAR-8 ovarian
HCT-116 colon = test system: HCT-116 colon
UO-31 renal = test system: UO-31 renal
MALME-3M melanoma = test system: MALME-3M melanoma
SF-295 CNS = test system: SF-295 CNS
PC-3 prostate = test system: PC-3 prostate
HCC-2998 colon = test system: HCC-2998 colon
NCI-H226 lung = test system: NCI-H226 lung
NCI-H322M lung = test system: NCI-H322M lung
SK-MEL-2 melanoma = test system: SK-MEL-2 melanoma
CCRF-CEM leukemia = test system: CCRF-CEM leukemia
SK-OV-3 ovarian = test system: SK-OV-3 ovarian
OVCAR-3 ovarian = test system: OVCAR-3 ovarian
LOX IMVI melanoma = test system: LOX IMVI melanoma
SNB-19 CNS = test system: SNB-19 CNS
NCI-H23 lung = test system: NCI-H23 lung
SW-620 colon = test system: SW-620 colon
DU-145 prostate = test system: DU-145 prostate
SK-MEL-28 melanoma = test system: SK-MEL-28 melanoma
T-47D breast = test system: T-47D breast
SF-268 CNS = test system: SF-268 CNS
HS 578T breast = test system: HS 578T breast
HOP-62 NSCLC = test system: HOP-62 NSCLC
SN12C renal = test system: SN12C renal

With `O=C1CC[C@H](N2Cc3c(OCc4ccc(CN5CCOCC5)cc4)cccc3C2=O)C(=O)N1` the GI50 (OVCAR-8 ovarian) was > 100 µM, the TGI (OVCAR-8 ovarian) was > 100 µM and the GI50 (HCT-116 colon) was > 100 µM. The TGI (HCT-116 colon) was > 100 µM, the GI50 (UO-31 renal) was > 100 µM and the TGI (UO-31 renal) was > 100 µM. For the same compound, the GI50 (MALME-3M melanoma) was > 100 µM, the TGI (MALME-3M melanoma) was > 100 µM and the GI50 (SF-295 CNS) was > 100 µM. The TGI (SF-295 CNS) was > 100 µM, the GI50 (PC-3 prostate) was > 100 µM and the TGI (PC-3 prostate) was > 100 µM. For the same compound, the GI50 (HCC-2998 colon) was > 100 µM, the TGI (HCC-2998 colon) was > 100 µM and the GI50 (NCI-H226 lung) was > 100 µM. For the same compound, the TGI (NCI-H226 lung) was > 100 µM, the GI50 (NCI-H322M lung) was > 100 µM and the TGI (NCI-H322M lung) was > 100 µM. For the same compound, the GI50 (SK-MEL-2 melanoma) was > 100 µM, the TGI (SK-MEL-2 melanoma) was > 100 µM and the GI50 (CCRF-CEM leukemia) was > 100 µM. The TGI (CCRF-CEM leukemia) was > 100 µM, the GI50 (SK-OV-3 ovarian) was > 100 µM and the TGI (SK-OV-3 ovarian) was > 100 µM. For the same compound, the GI50 (OVCAR-3 ovarian) was > 100 µM, the TGI (OVCAR-3 ovarian) was > 100 µM and the GI50 (LOX IMVI melanoma) was > 100 µM. For the same compound, the TGI (LOX IMVI melanoma) was > 100 µM, the GI50 (SNB-19 CNS) was > 100 µM and the TGI (SNB-19 CNS) was > 100 µM. The GI50 (NCI-H23 lung) was > 100 µM, the TGI (NCI-H23 lung) was > 100 µM and the GI50 (SW-620 colon) was > 100 µM. The TGI (SW-620 colon) was > 100 µM, the GI50 (DU-145 prostate) was > 100 µM and the TGI (DU-145 prostate) was > 100 µM. For the same compound, the GI50 (SK-MEL-28 melanoma) was > 100 µM, the TGI (SK-MEL-28 melanoma) was > 100 µM and the GI50 (T-47D breast) was > 100 µM. For the same compound, the TGI (T-47D breast) was > 100 µM, the GI50 (SF-268 CNS) was > 100 µM and the TGI (SF-268 CNS) was > 100 µM. For the same compound, the GI50 (HS 578T breast) was > 100 µM, the TGI (HS 578T breast) was > 100 µM and the GI50 (HOP-62 NSCLC) was > 100 µM. The TGI (HOP-62 NSCLC) was > 100 µM and the GI50 (SN12C renal) was > 100 µM.
